According to patent US20240197664A1, “SIRTUIN OR KLOTHO ACTIVATOR OR EXPRESSION ENHANCER, NAD+ INCREASING AGENT, AND SENOLYTIC AGENT” (WAKUNAGA PHARMACEUTICAL CO., LTD., priority 2021, published 2024):

Experiments:
[1] = tested on: p16 gene; test: Suppression of senescent cell marker p16 gene expression in the kidney (in vivo), real-time PCR; set-up: species or system senescence-accelerated mice SAMP8; conditions: repeated oral administration for two weeks
Text: (§1) Animals for evaluating the biological activity were bred as follows. Senescence-accelerated mice SAMP8 (male) for testing were purchased from Japan SLC, Inc. After purchase, the animals were acclimatized for one week and used as animals for the evaluation tests.
(§2) After repeated oral administration of the sample prepared in the above (1) (a) to the animals for the evaluation tests in the above (2) for two weeks, kidneys of such animals were excised. The kidneys were crushed using an automatic tissue crusher, and then RNA was extracted using a TRIzol solution manufactured by Thermo Fisher Scientific K.K.
(§3) CDNA was synthesized using PRIMEScript RT reagent Kit with gEraser manufactured by Takara. The synthesized cDNA was subjected to real-time PCR using KAPA SYBR Fast qPCR kit manufactured by Nippon Genetics Co., Ltd. Results are shown in FIG. 6.

[2] = tested on: SIRT1 gene; test: Enhancement of SIRT1 gene expression in the kidney (in vivo), real-time PCR; set-up: species or system senescence-accelerated mice SAMP8; conditions: repeated oral administration for two weeks
Text: as §1
(§4) After repeated oral administration of the sample prepared in the above (1) (a) to the animals for the evaluation tests in the above (2) for two weeks, kidneys of such animals were excised. The kidneys were crushed using an automatic tissue crusher, and then RNA was extracted using a TRIzol solution manufactured by Thermo Fisher Scientific K.K. cDNA was synthesized using PRIMEScript RT reagent Kit with gEraser manufactured by Takara. The synthesized cDNA was subjected to real-time PCR using KAPA SYBR Fast qPCR kit manufactured by Nippon Genetics Co., Ltd. Results are shown in FIG. 5.

[3] = tested on: lipocalin-2 (NGAL); test: Inhibitory action on kidney injuries (in vivo), NGAL Western Blotting; set-up: species or system senescence-accelerated mice SAMP8; conditions: repeated oral administration for two weeks
Text: as §1
(§5) After repeated oral administration of the sample prepared in the above (1) (a) to the animals for the evaluation tests in the above (2) for two weeks, kidneys of such animals were excised. After the kidneys were crushed using an automatic tissue crusher, the cells were lysed with an RIPA cell lysis buffer manufactured by Millipore Corporation which was diluted 10-fold with purified water added with a protease inhibitor and a phosphatase inhibitor manufactured by Roche and then centrifuged (10,000 rpm, 10 min, 4° C.), and the supernatant was used as a cell extract. The cell extract was used for analysis by Western Blotting according to a conventional method. A kidney injury molecule (KIM-1) antibody (manufactured by R&D System) and a lipocalin-2 (NGAL) antibody (manufactured by Proteintech Group, Inc.), KIM-1 and NGAL being markers of kidney injuries, and an anti-GAPDH antibody (manufactured by Fujifilm Wako Pure Chemical Corporation) were used as antibodies.

[4] = tested on: SIRT1 protein; test: SIRT1 protein increasing action (in vivo), Western Blotting of hippocampus; set-up: species or system senescence-accelerated mice SAMP8; conditions: repeated oral administration for two weeks
Text: as §1
(§6) After repeated oral administration of the sample prepared in the above (1) (a) to animals for the evaluation tests in the above (2) for two weeks, hippocampi of such animals were excised. After the hippocampi were crushed using an automatic tissue crusher, the cells were lysed with a RIPA cell lysis buffer manufactured by Millipore Corporation which was diluted 10-fold with purified water added with combined protease/phosphatase inhibitors manufactured by Thermo Fisher Scientific K.K., and then centrifuged (10,000 rpm, 10 min, 4° C.), and the supernatant was used as a cell extract. The cell extract was used for analysis by Western Blotting according to a conventional method. An anti-SIRT1 antibody (manufactured by Biolegend) and an anti-β-actin antibody (manufactured by Fujifilm Wako Pure Chemical Corporation) were used as antibodies.

[5] = tested on: kidney injury molecule (KIM-1); test: Inhibitory action on kidney injuries (in vivo), KIM-1 Western Blotting; set-up: species or system senescence-accelerated mice SAMP8; conditions: repeated oral administration for two weeks
Text: as §1, §5

[6] = tested on: Klotho gene; test: Enhancement of Klotho gene expression in the kidney (in vivo), real-time PCR; set-up: species or system senescence-accelerated mice SAMP8; conditions: repeated oral administration for two weeks
Text: as §1, §4

[7] = target: T1, SIRT1 (Mus musculus, UniProt Q923E4); test: SIRT1 activation action (in vivo), SIRT1_GLO kit on cerebral cortex lysate; set-up: species or system senescence-accelerated mice SAMP8; conditions: single oral dose, 180 minutes after administration, vs control group
T1 construct: from tissue; host or cells: cerebral cortex of SAMP8 mice
T1 sequence (Q923E4 1-737): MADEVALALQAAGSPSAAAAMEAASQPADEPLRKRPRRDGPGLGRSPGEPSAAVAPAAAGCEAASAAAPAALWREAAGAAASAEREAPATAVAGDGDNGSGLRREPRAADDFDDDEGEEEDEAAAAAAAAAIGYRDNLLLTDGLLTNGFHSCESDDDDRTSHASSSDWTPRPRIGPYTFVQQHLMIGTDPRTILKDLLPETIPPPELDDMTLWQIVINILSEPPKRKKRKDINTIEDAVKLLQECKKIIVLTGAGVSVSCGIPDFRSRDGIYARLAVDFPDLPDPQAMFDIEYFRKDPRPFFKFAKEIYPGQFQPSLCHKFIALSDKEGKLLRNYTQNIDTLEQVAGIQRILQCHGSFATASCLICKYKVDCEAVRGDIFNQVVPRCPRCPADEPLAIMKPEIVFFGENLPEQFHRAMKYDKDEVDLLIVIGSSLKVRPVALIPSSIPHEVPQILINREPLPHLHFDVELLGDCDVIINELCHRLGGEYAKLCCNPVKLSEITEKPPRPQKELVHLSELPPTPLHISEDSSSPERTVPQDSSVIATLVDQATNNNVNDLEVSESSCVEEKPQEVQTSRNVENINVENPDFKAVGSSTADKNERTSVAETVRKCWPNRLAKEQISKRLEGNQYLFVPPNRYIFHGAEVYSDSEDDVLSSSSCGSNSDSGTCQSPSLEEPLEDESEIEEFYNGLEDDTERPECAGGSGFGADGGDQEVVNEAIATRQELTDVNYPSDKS
Description: as §1
A SIRT1_GLO kit manufactured by Promega Corporation was purchased to measure the sirtuins activity. A lysate of the cerebral cortex was placed in a 96-well plate, various reaction reagents were added, and then luminous intensity of luciferase was measured by a plate reader.
A single dose of the sample prepared in the above (1) (a) was orally administrated to animals for the evaluation tests in the above (2), and then cerebral cortices of such animals were extracted 15, 30, 60, and 180 minutes later. The cerebral cortices were crushed using an automatic tissue crusher and lysed by adding a cell dissolution liquid. Centrifugation was performed and the sirtuins activity in the supernatant thereof was measured.

[8] = tested on: NAD+; test: NAD+ amount increasing action (in vivo), NAD+/NADH Assay Kit; set-up: species or system senescence-accelerated mice SAMP8; conditions: single oral dose (180 minutes later) and mixed with food for one month; cerebral cortices
Description: as §1
A single dose of the sample prepared in (1) (a) was orally administered to animals for the evaluation tests in the above (2), and then cerebral cortices of such animals were excised 180 minutes later. In addition, the sample prepared in the above (1) (a) was mixed with food and fed to animals for the evaluation tests in the above (2) for one month, and then cerebral cortices of such animals were excised. The NAD^+ amount in the cerebral cortices was measured using NAD^+/NADH Assay Kit manufactured by Dojindo Laboratories.

[9] = tested on: p53 protein; test: Suppression of cellular senescence marker p53 protein in the hippocampus (in vivo), Western Blotting; set-up: species or system senescence-accelerated mice SAMP8; conditions: repeated oral administration for six weeks
Text: as §1
as §6, with “six” for “two”, “a protease inhibitor and a phosphatase inhibitor” for “combined protease/phosphatase inhibitors”, “Roche,” for “Thermo Fisher Scientific K.K.,”, “anti-p53” for “anti-SIRT1”, “Proteintech Group, Inc.)” for “Biolegend)”, “Medical and Biological Laboratories Co., Ltd.)” for “Fujifilm Wako Pure Chemical Corporation)”

[10] = tested on: p21 gene; test: Suppression of senescent cell marker p21 gene expression in the kidney (in vivo), real-time PCR; set-up: species or system senescence-accelerated mice SAMP8; conditions: repeated oral administration for two weeks
Text: as §1, §2, §3

[11] = tested on: senescence-accelerated mice SAMP8; test: Cognitive/memory retention action (in vivo), passive avoidance test; conditions: mixed with food for four months, holding trial after two months
Description: as §1
The sample prepared in the above (1) (a) was mixed with food and fed to animals for evaluation test in the above (2) for four months, and then a passive avoidance test was performed. The passive avoidance test is a test utilizing a habit that a mouse prefers a dark place, and on Day 1, a mouse already in a bright room was moved to a dark room while receiving an electrical shock (50 V/1 second), and the time it took for the mouse to enter the dark room was taken as response latency of an acquisition trial. After two months, the mouse was put in the bright room again and the time it took to move to the dark room (the response latency of a holding trial) was used as an index of memory.

## CC=CSCC(N)C(=O)O (centres unmarked) [S-1-propenylcysteine]
[1]
  cells expressing p16 gene in the kidneys: reduced
[2]
  expression of SIRT1 gene in the kidney: increased
[3]
  NGAL protein mass in the kidney: reduced
[4]
  SIRT1 protein mass in the hippocampus: increased
[5]
  KIM-1 protein mass in the kidney: reduced
[6]
  expression of Klotho gene in the kidney: increased
[7]
  Sirtuin activity in cerebral cortex: increased
[8]
  NAD+ amount: increased
[9]
  p53 protein mass in the hippocampus: reduced
[10]
  cells expressing p21 gene in the kidneys: reduced
[11]
  aging-related decline in cognitive and memory functions (response latency of holding trial): ameliorated
